Measurements: patent US20230407243A1, “GENETIC PLATFORM TO INVESTIGATE THE FUNCTIONS OF BACTERIAL DRUG EFFLUX PUMPS” (priority 2022, published 2023)
Like-named read-outs stand apart in the source and are kept apart here.

Key:
Type in all cases: cell-based, Escherichia coli
[1] = test system: E. coli EKO-35; assay: microbe, parasite or virus in culture; conditions: for Fold change of MICs: EKO-35 compared to EKO-35 (reference); for MIC: Escherichia coli, EKO35
Summary of the method: (§1)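 Overnight LB cultures (37 °C, 18 h) were resuspended in PBS pH 7.4 to OD600 ~1.0 and diluted 1/2000 into MHB II. Strains were exposed to 2-fold serial compound dilutions in duplicate for 18 h at 37 °C with shaking. MIC was read from OD600 after subtracting pre-incubation background.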

[2] = test system: E. coli ΔtolC; assay: microbe, parasite or virus in culture; conditions: for Minimum inhibitory concentration (MIC), ΔtolC: Table 10, without pore
Summary of the method: as §1

[3] = test system: wild-type E. coli K-12 str. BW25113; assay: microbe, parasite or virus in culture; conditions: technical duplicate; for MIC: Escherichia coli, BW25113
Summary of the method: as §1

[4] = test system: EKO-35 araC::acrBD408A; assay: MIC susceptibility profiling, efflux platform; conditions: for Fold change of MICs: EKO-35 araC::acrBD408A compared to EKO-35
Summary of the method: as §1

[5] = test system: EKO-35 araC::acrB; assay: MIC susceptibility profiling, efflux platform; conditions: for Fold change of MICs: EKO-35 araC::acrB compared to EKO-35
Summary of the method: as §1

[6] = test system: EKO-35 araC::acrD; assay: MIC susceptibility profiling, efflux platform; conditions: for Fold change of MICs: EKO-35 araC::acrD compared to EKO-35
Summary of the method: as §1

[7] = test system: EKO-35 araC::acrEF; assay: MIC susceptibility profiling, efflux platform; conditions: for Fold change of MICs: EKO-35 araC::acrEF compared to EKO-35
Summary of the method: as §1

[8] = test system: EKO-35 araC::emrAB; assay: MIC susceptibility profiling, efflux platform; conditions: for Fold change of MICs: EKO-35 araC::emrAB compared to EKO-35
Summary of the method: as §1

[9] = test system: EKO-35 araC::emrKY; assay: MIC susceptibility profiling, efflux platform; conditions: for Fold change of MICs: EKO-35 araC::emrKY compared to EKO-35
Summary of the method: as §1

[10] = test system: EKO-35 araC::macAB; assay: MIC susceptibility profiling, efflux platform; conditions: for Fold change of MICs: EKO-35 araC::macAB compared to EKO-35
Summary of the method: as §1

[11] = test system: EKO-35 araC::mdtBC; assay: MIC susceptibility profiling, efflux platform; conditions: for Fold change of MICs: EKO-35 araC::mdtBC compared to EKO-35
Summary of the method: as §1

[12] = test system: EKO-35 araC::mdtEF; assay: MIC susceptibility profiling, efflux platform; conditions: for Fold change of MICs: EKO-35 araC::mdtEF compared to EKO-35
Summary of the method: as §1

[13] = test system: EKO-35 araC::mexCD (MexCD from P. aeruginosa); assay: MIC susceptibility profiling, efflux platform; conditions: for Fold change of MICs: EKO-35 araC::mexCD compared to EKO-35
Summary of the method: as §1

[14] = test system: wild-type (WT) K-12-Pore; assay: microbe, parasite or virus in culture; conditions: technical duplicate; for MIC: Escherichia coli
Summary of the method: (§2)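 Strains carry the fhuA ΔC/Δ4L pore integrated between glmS and pstS under a constitutive promoter, with pore activity checked by vancomycin susceptibility. Overnight LB cultures were adjusted in PBS pH 7.4 to OD600 ~1.0 and diluted 1/2000 into MHB II. 2-fold compound titrations were read by OD600 after 18 h at 37 °C.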

[15] = test system: ΔtolC-Pore; assay: microbe, parasite or virus in culture; conditions: for Minimum inhibitory concentration (MIC), Pore ΔtolC: Table 10, with pore
Summary of the method: as §2

[16] = test system: EKO-35 araC::acrEF Pore; assay: MIC susceptibility profiling, porinated efflux platform; conditions: for Fold changes of MICs: EKO-35 araC::acrEF Pore compared to EKO-35-Pore
Summary of the method: as §2

[17] = test system: EKO-35 araC::emrKY Pore; assay: as above; conditions: for Fold changes of MICs: EKO-35 araC::emrKY Pore compared to EKO-35-Pore
Summary of the method: as §2

[18] = test system: EKO-35 araC::macAB Pore; assay: as above; conditions: for Fold changes of MICs: EKO-35 araC::macAB Pore compared to EKO-35-Pore
Summary of the method: as §2

[19] = test system: EKO-35 araC::mdtEF Pore; assay: as above; conditions: for Fold changes of MICs: EKO-35 araC::mdtEF Pore compared to EKO-35-Pore
Summary of the method: as §2

[20] = Table 13A, non-porinated, technical duplicate
[21] = Table 13B, non-porinated, technical duplicate
[22] = Table 14A, porinated, technical duplicate

SMILES: C[n+]1c2cc(N)ccc2cc2ccc(N)cc21.[Cl-] [acriflavine]
- susceptibility of EKO-35 compared with the ΔtolC mutant [1]: more susceptible
- Fold change of MICs [1]: 1 fold
- Minimum inhibitory concentration (MIC), EKO-35 ([1]; Table 10, without pore, technical duplicate): 0.098 µg/mL
- Minimum Inhibitory Concentration, EKO-35 [1, 20]: 0.098 µg/mL
- Minimum inhibitory concentration (MIC), ΔtolC ([2]; technical duplicate): 3.125 µg/mL
- Minimum Inhibitory Concentration, ΔtolC [2, 20]: 3.125 µg/mL
- Minimum inhibitory concentration (MIC), K-12 ([3]; Table 10, without pore): 50 µg/mL
- Minimum Inhibitory Concentration, K-12 ([3]; Table 13A, non-porinated): 50 µg/mL
- Fold change of MICs [4]: 1 fold
- Minimum Inhibitory Concentration, EKO-35 araC::acrBD408A [4, 21]: 0.098 µg/mL
- Fold change of MICs [5]: 32 fold
- Minimum Inhibitory Concentration, EKO-35 araC::acrB [5, 20]: 3.125 µg/mL
- restoration of resistance to wild-type levels by acrB alone ([5]; overexpression of acrB in EKO-35): did not restore resistance to wild-type levels
- Fold change of MICs [6]: 2 fold
- Minimum Inhibitory Concentration, EKO-35 araC::acrD [6, 20]: 0.195 µg/mL
- Fold change of MICs [7]: 8 fold
- Minimum Inhibitory Concentration, EKO-35 araC::acrEF [7, 20]: 0.781 µg/mL
- Fold change of MICs [8]: 1 fold
- Minimum Inhibitory Concentration, EKO-35 araC::emrAB [8, 21]: 0.098 µg/mL
- Fold change of MICs [9]: 1 fold
- Minimum Inhibitory Concentration, EKO-35 araC::emrKY [9, 21]: 0.098 µg/mL
- Fold change of MICs [10]: 1 fold
- Minimum Inhibitory Concentration, EKO-35 araC::macAB [10, 21]: 0.098 µg/mL
- Fold change of MICs [11]: 1 fold
- Minimum Inhibitory Concentration, EKO-35 araC::mdtBC [11, 21]: 0.098 µg/mL
- Fold change of MICs [12]: 2 fold
- Minimum Inhibitory Concentration, EKO-35 araC::mdtEF [12, 20]: 0.195 µg/mL
- Fold change of MICs [13]: 8 fold
- Minimum Inhibitory Concentration, EKO-35 araC::mexCD [13, 21]: 0.781 µg/mL
- Minimum inhibitory concentration (MIC), Pore K-12 ([14]; Table 10, with pore): 50 µg/mL
- Minimum inhibitory concentration, K-12 (WT)-Pore ([14]; Table 14A, porinated): 50 µg/mL
- Minimum inhibitory concentration (MIC), Pore ΔtolC ([15]; technical duplicate): 3.125 µg/mL
- Minimum inhibitory concentration, ΔtolC-Pore [15, 22]: 3.125 µg/mL
- Fold changes of MICs [16]: 8 fold
- Minimum inhibitory concentration, EKO-35 araC::acrEF Pore [16, 22]: 0.781 µg/mL
- Fold changes of MICs [17]: 1 fold
- Minimum inhibitory concentration ([17]; EKO-35 araC::emrKY Pore, technical duplicate): 0.098 µg/mL
- Fold changes of MICs [18]: 2 fold
- Minimum inhibitory concentration ([18]; EKO-35 araC::macAB Pore, technical duplicate): 0.195 µg/mL
- Fold changes of MICs [19]: 2 fold
- Minimum inhibitory concentration, EKO-35 araC::mdtEF Pore [19, 22]: 0.195 µg/mL

SMILES: CC(=O)O[C@H]1C[C@@]2(C)[C@@H](C[C@@H](O)[C@H]3[C@@]4(C)CC[C@@H](O)[C@@H](C)[C@@H]4CC[C@@]32C)/C1=C(\CCC=C(C)C)C(=O)O [fusidic acid]
- Fold change of MICs [1]: 1 fold
- MIC ([1]; Table 10, without pore, technical duplicate, read-out: Minimum inhibitory concentration (MIC), EKO-35): 3.12 µg/mL
- MIC ([1]; Table 13A, non-porinated, technical duplicate, read-out: Minimum Inhibitory Concentration, EKO-35): 3.12 µg/mL
- MIC ([2]; Escherichia coli, 18 h, read-out: Minimum Inhibitory Concentration, ΔtolC): 3.12 µg/mL
- Minimum inhibitory concentration (MIC), ΔtolC ([2]; technical duplicate): 3.125 µg/mL
- MIC ([3]; Table 10, without pore, read-out: Minimum inhibitory concentration (MIC), K-12): 400 µg/mL
- MIC ([3]; Table 13A, non-porinated, read-out: Minimum Inhibitory Concentration, K-12): 400 µg/mL
- Fold change of MICs [4]: 1 fold
- MIC ([4]; Escherichia coli, Table 13B, non-porinated, technical duplicate, read-out: Minimum Inhibitory Concentration, EKO-35 araC::acrBD408A): 3.12 µg/mL
- Fold change of MICs [5]: 128 fold
- MIC ([5]; Escherichia coli, Table 13A, non-porinated, technical duplicate, read-out: Minimum Inhibitory Concentration, EKO-35 araC::acrB): 400 µg/mL
- Fold change of MICs [6]: 32 fold
- Fold change of MICs [7]: 16 fold
- MIC ([7]; Escherichia coli, Table 13A, non-porinated, technical duplicate, read-out: Minimum Inhibitory Concentration, EKO-35 araC::acrEF): 50 µg/mL
- Fold change of MICs [8]: 2 fold
- MIC ([8]; Escherichia coli, Table 13B, non-porinated, technical duplicate, read-out: Minimum Inhibitory Concentration, EKO-35 araC::emrAB): 6.25 µg/mL
- Fold change of MICs [9]: 1 fold
- MIC ([9]; Escherichia coli, Table 13B, non-porinated, technical duplicate, read-out: Minimum Inhibitory Concentration, EKO-35 araC::emrKY): 3.12 µg/mL
- Fold change of MICs [10]: 1 fold
- MIC ([10]; Escherichia coli, Table 13B, non-porinated, technical duplicate, read-out: Minimum Inhibitory Concentration, EKO-35 araC::macAB): 3.12 µg/mL
- Fold change of MICs [11]: 2 fold
- MIC ([11]; Escherichia coli, Table 13B, non-porinated, technical duplicate, read-out: Minimum Inhibitory Concentration, EKO-35 araC::mdtBC): 6.25 µg/mL
- Fold change of MICs [12]: 16 fold
- MIC ([12]; Escherichia coli, Table 13A, non-porinated, technical duplicate, read-out: Minimum Inhibitory Concentration, EKO-35 araC::mdtEF): 50 µg/mL
- Fold change of MICs [13]: 4 fold
- MIC ([13]; Table 13B, non-porinated, technical duplicate, read-out: Minimum Inhibitory Concentration, EKO-35 araC::mexCD): 12.5 µg/mL
- MIC ([14]; Table 10, with pore, read-out: Minimum inhibitory concentration (MIC), Pore K-12): 100 µg/mL
- MIC ([14]; Table 14A, porinated, read-out: Minimum inhibitory concentration, K-12 (WT)-Pore): 100 µg/mL
- MIC ([15]; Escherichia coli, 18 h, read-out: Minimum inhibitory concentration, ΔtolC-Pore): 0.391 µg/mL
- Minimum inhibitory concentration (MIC), Pore ΔtolC ([15]; technical duplicate): 0.391 µg/mL
- Fold changes of MICs [16]: 32 fold
- MIC ([16]; Escherichia coli, Table 14A, porinated, technical duplicate, read-out: Minimum inhibitory concentration, EKO-35 araC::acrEF Pore): 12.5 µg/mL
- Fold changes of MICs [17]: 1 fold
- MIC ([17]; Escherichia coli, EKO-35 araC::emrKY Pore, technical duplicate, read-out: Minimum inhibitory concentration): 0.391 µg/mL
- Fold changes of MICs [18]: 1 fold
- MIC ([18]; Escherichia coli, EKO-35 araC::macAB Pore, technical duplicate, read-out: Minimum inhibitory concentration): 0.391 µg/mL
- Fold changes of MICs [19]: 8 fold
- MIC ([19]; Escherichia coli, Table 14A, porinated, technical duplicate, read-out: Minimum inhibitory concentration, EKO-35 araC::mdtEF Pore): 3.12 µg/mL
